Data: patent US11497761B2, “Compositions for the treatment of metastatic cancer” (priority 2019, dated 2022)

Tests used:
[1] = Stability of monolaurin stock solution; format: physicochemical; conditions: 4.78 mM with 0.75% PS-80 (Stock Solution C), 4 degrees C
Method: Materials for Project 1 Study-Pancreatic Cancer • Blood collection tubes: BD Vacutainer® 10 mL sodium heparin tube (BD catalog #367874)). • Vita-Assay™ AN6W plate. • Blood: pancreatic cancer, up to 40-mL blood collected from patients and provided by Conversant Bio. • Stock solution and dilutions • Monolaurin 4.78 mM with 0.75% PS-80 (Stock Solution C), 13.1 mg monolaurin in 0.25 mL PS-80 and 0.75 mL water and 0.1 mL of this solution was diluted with 0.9 mL of RPMI. Stocks are stable for 2 weeks at 4 degrees C. Monolaurin used is an equal mixture of 1-, 2-, and 3-isomers of monolaurin. • Monolaurin dilution: add 209.2 uL, 627.6 uL, and 1.2552 mL of monolaurin in 0.75% PS-80 (Stock solution C), and dilute to 10 mL of media to achieve final concentrations of 100 uM, 200 uM, 300 uM as indicated.
Materials for Project 1 Study-Prostate Cancer • Blood collection tubes: BD Vacutainer® 10 mL sodium heparin tube (BD catalog #367874)). • Vita-Assay™ AN6W plate. • Blood: prostate cancer, up to 40-mL blood was collected from patients and provided by Conversant bio. • Stock Solution and Dilutions • Monolaurin, 4.78 mM with 0.75% PS-80 (Stock Solution C), 13.1 mg monolaurin in 0.25 mL PS-80 and 0.75 mL water and 0.1 mL of this solution was diluted with 0.9 mL of RPMI. Stock solutions were stable for 2 weeks at 4 degrees C. […]

[2] = test system: iCTCs from prostate cancer patients; experiment: iCTC drug response (CDR) testing ex vivo, Project 1 Study-Prostate Cancer; format: cell-based, human; conditions: for number of live iCTCs remaining after treatment: 72 hours
Method: Materials for Project 1 Study-Prostate Cancer • Blood collection tubes: BD Vacutainer® 10 mL sodium heparin tube (BD catalog #367874)). • Vita-Assay™ AN6W plate. • Blood: prostate cancer, up to 40-mL blood was collected from patients and provided by Conversant bio. • Stock Solution and Dilutions • Monolaurin, 4.78 mM with 0.75% PS-80 (Stock Solution C), 13.1 mg monolaurin in 0.25 mL PS-80 and 0.75 mL water and 0.1 mL of this solution was diluted with 0.9 mL of RPMI. Stock solutions were stable for 2 weeks at 4 degrees C. Monolaurin used is an equal mixture of 1-, 2-, and 3-isomers of monolaurin. • Dilution: Monolaurin: Add 209.2 uL, 627.6 uL, and 1.2552 mL of CPI-2400 in 0.75% PS-80 (Stock solution C) and dilute to 10 mL of media to achieve final concentrations of 100 uM, 200 uM, and 300 uM final concentrations of drug cell exposure respectively.
With respect to FIG. 1, a depiction of a generalized experimental scheme for testing efficacy of a composition in accordance with an exemplary embodiment of the present invention against iCTC from the blood of prostate cancer patients is shown. Invasive circulating tumor cells (iCTCs) were obtained from venous blood of the individual with advanced prostate cancer, cultured and exposed to a specific drug or battery of drugs at 1×, 2×, and 3× concentrations in vitro for 3 days. Drug responsiveness was measured by automatic flow cytometry using the reduction of live iCTCs in the treated samples from the number of live iCTCs in the untreated controls. The greater the reduction of iCTCs of a given drug at a given dose indicates greater responsiveness to that dose of the drug. Four AN6W plates were used for each sample. Control and drug at each dose in triplicate were incubated for 72 hours. The iCTCs were measured by flow cytometry and viewed by microscopy as described. The complete culture medium contains 10% fetal bovine serum.
The complete experimental procedure for The Project 1 Study-Prostate Cancer followed the same procedure as that used with respect to The Project 1 Study-Pancreatic Cancer. With reference to FIGS. 5 and 6, flow cytometry evaluation: Count tumor cells and immune cells by using a 4-channel (FITC, PE, APC, and 7AAD) flow cytometer. iCTC is defined as: EPI^+TP^+CD45^−[…] • FIG. 5 depicts images of solitary and clustered iCTCs with specific markers in a cytospin preparation of the RP-19 sample. […] Pink arrows indicated iCTC clusters. A tumor cell was positively stained with green fluorescence-epithelial marker (GF-Epi), blue fluorescence nucleic acid dye (BF-Hoechst) and red fluorescence tumor progenitor (TP) marker (RF-TP). White arrows indicate WBCs that were not stained by Epi and TP tumor markers. Bar=40 μm. Cells from RP-19 were cultured for 3 days before staining.

[3] = test system: primary human T-cell signaling; conditions: in vitro, cited from earlier work

CCCCCCCCCCCC(=O)OCC(O)CO (centres unmarked) [Monolaurin, glycerol monolaurate]
36 to 73 µM: concentration interfering with activated T cell adhesion and actin organization (equivalent) ([3]; formulated in 95% ethanol) | concentrations inhibiting primary human T-cell signaling [3]
30: number of live iCTCs remaining after treatment ([2]; patient RP212 (Taxotere), iCTC control 55, 100 uM monolaurin)
0: number of live iCTCs remaining after treatment ([2]; patient RP02 (Taxotere), iCTC control 450, 100 uM monolaurin) | number of live iCTCs remaining after treatment ([2]; patient RP02 (Taxotere), iCTC control 450, 200 uM monolaurin) | number of live iCTCs remaining after treatment ([2]; patient RP02 (Taxotere), iCTC control 450, 300 uM monolaurin) | number of live iCTCs remaining after treatment ([2]; patient RP06 (Taxotere), iCTC control 40, 200 uM monolaurin) | number of live iCTCs remaining after treatment ([2]; patient RP06 (Taxotere), iCTC control 40, 300 uM monolaurin) | number of live iCTCs remaining after treatment ([2]; patient RP07 (Taxotere), iCTC control 200, 100 uM monolaurin) | number of live iCTCs remaining after treatment ([2]; patient RP07 (Taxotere), iCTC control 200, 200 uM monolaurin) | number of live iCTCs remaining after treatment ([2]; patient RP07 (Taxotere), iCTC control 200, 300 uM monolaurin) | number of live iCTCs remaining after treatment ([2]; patient RP08 (Taxotere), iCTC control 60, 100 uM monolaurin) | number of live iCTCs remaining after treatment ([2]; patient RP08 (Taxotere), iCTC control 60, 200 uM monolaurin) | number of live iCTCs remaining after treatment ([2]; patient RP08 (Taxotere), iCTC control 60, 300 uM monolaurin) | number of live iCTCs remaining after treatment ([2]; patient RP09 (Taxotere), iCTC control 225, 100 uM monolaurin) | number of live iCTCs remaining after treatment ([2]; patient RP09 (Taxotere), iCTC control 225, 200 uM monolaurin) | number of live iCTCs remaining after treatment ([2]; patient RP09 (Taxotere), iCTC control 225, 300 uM monolaurin) | number of live iCTCs remaining after treatment ([2]; patient RP13 (Taxotere), iCTC control 75, 100 uM monolaurin) | number of live iCTCs remaining after treatment ([2]; patient RP13 (Taxotere), iCTC control 75, 200 uM monolaurin) | number of live iCTCs remaining after treatment ([2]; patient RP13 (Taxotere), iCTC control 75, 300 uM monolaurin) | number of live iCTCs remaining after treatment ([2]; patient RP15 (Taxotere), iCTC control 50, 300 uM monolaurin) | number of live iCTCs remaining after treatment ([2]; patient RP19 (Taxotere), iCTC control 425, 300 uM monolaurin) | number of live iCTCs remaining after treatment ([2]; patient Rp05 (Taxotere), iCTC control 20, 200 uM monolaurin) | number of live iCTCs remaining after treatment ([2]; patient Rp05 (Taxotere), iCTC control 20, 300 uM monolaurin)
5: number of live iCTCs remaining after treatment ([2]; patient RP20 (Taxotere), iCTC control 50, 300 uM monolaurin)
2 weeks: stock solution stable for [1]
50: number of live iCTCs remaining after treatment ([2]; patient RP19 (Taxotere), iCTC control 425, 100 uM monolaurin) | number of live iCTCs remaining after treatment ([2]; patient RP19 (Taxotere), iCTC control 425, 200 uM monolaurin)
10: number of live iCTCs remaining after treatment ([2]; patient RP06 (Taxotere), iCTC control 40, 100 uM monolaurin) | number of live iCTCs remaining after treatment ([2]; patient RP15 (Taxotere), iCTC control 50, 200 uM monolaurin) | number of live iCTCs remaining after treatment ([2]; patient RP20 (Taxotere), iCTC control 50, 200 uM monolaurin) | number of live iCTCs remaining after treatment ([2]; patient RP212 (Taxotere), iCTC control 55, 200 uM monolaurin) | number of live iCTCs remaining after treatment ([2]; patient RP212 (Taxotere), iCTC control 55, 300 uM monolaurin)
10 to 20 µg/mL: concentration interfering with activated T cell adhesion and actin organization ([3]; formulated in 95% ethanol)
15: number of live iCTCs remaining after treatment ([2]; patient Rp05 (Taxotere), iCTC control 20, 100 uM monolaurin)
20: number of live iCTCs remaining after treatment ([2]; patient RP15 (Taxotere), iCTC control 50, 100 uM monolaurin) | number of live iCTCs remaining after treatment ([2]; patient RP20 (Taxotere), iCTC control 50, 100 uM monolaurin)
high kill rates: kill rates of iCTCs (summary) ([2]; iCTCs from prostate cancer patients)
